Experimental data reported in patent publication US7514448B2, “Azaindoles useful as inhibitors of rock and other protein kinases” (Vertex Pharmaceuticals Incorporated, priority 2004, dated 2009).

Columns and labels:
Format in all cases: biochemical
[1] = molecular target: PKA (Homo sapiens, UniProt P17612); assay: PKA inhibition assay, coupled enzyme; settings: average Ki if more than one determined
Summary of the method: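 Coupled PK/LDH assay following NADH depletion: 18 nM PKA, 50 μM ATP, 80 μM Kemptide in 100 mM HEPES pH 7.5, 10 mM MgCl2, 25 mM NaCl, 1 mM DTT, 3% DMSO, at 30 °C. Compound preincubated 10 min before ATP start; initial rates over 15 min, IC50 and Ki by non-linear regression.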

[2] = molecular target: T1, Itk (Homo sapiens, UniProt Q08881); assay: Itk inhibition assay, coupled enzyme; settings: average Ki if more than one determined
T1 sequence (Q08881 1-620): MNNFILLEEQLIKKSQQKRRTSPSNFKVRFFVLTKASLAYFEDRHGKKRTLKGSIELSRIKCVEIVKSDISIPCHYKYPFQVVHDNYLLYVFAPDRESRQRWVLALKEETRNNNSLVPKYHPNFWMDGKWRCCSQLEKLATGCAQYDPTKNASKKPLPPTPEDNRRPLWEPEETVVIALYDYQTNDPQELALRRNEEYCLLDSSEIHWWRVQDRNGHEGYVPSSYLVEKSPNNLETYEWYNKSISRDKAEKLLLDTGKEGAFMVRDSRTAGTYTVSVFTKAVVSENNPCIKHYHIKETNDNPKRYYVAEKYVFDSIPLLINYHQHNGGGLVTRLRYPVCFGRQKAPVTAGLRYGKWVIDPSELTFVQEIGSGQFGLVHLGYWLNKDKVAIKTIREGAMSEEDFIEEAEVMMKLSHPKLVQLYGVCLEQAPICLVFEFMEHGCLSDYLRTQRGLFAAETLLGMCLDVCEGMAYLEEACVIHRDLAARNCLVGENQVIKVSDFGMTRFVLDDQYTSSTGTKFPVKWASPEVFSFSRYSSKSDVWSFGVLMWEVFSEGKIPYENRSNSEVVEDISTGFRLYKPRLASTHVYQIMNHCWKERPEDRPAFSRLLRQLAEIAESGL
Procedure: Compounds were screened for their ability to inhibit Itk using a standard coupled enzyme assay (Fox et al., Protein Sci., (1998) 7, 2249). Assays were carried out in a mixture of 20 mM MOPS (pH 7.0), 10 mM MgCl2, 0.1% BSA, 1 mM DTT, 2.5 mM phosphoenolpyruvate, 300 μM NADH, 30 μg/ml pyruvate kinase and 10 μg/ml lactate dehydrogenase. Final substrate concentrations in the assay were 100 μM ATP (Sigma Chemicals) and 3 μM peptide (Biotinylated SAM68 D332-443). Assays were carried out at 25° C. and in the presence of 100 nM Itk.
An assay stock buffer solution was prepared containing all of the reagents listed above, with the exception of ATP and the test compound of interest. 60 μl of the stock solution was placed in a 96 well plate followed by addition of 2 μl of DMSO stock containing serial dilutions of the test compound (typically starting from a final concentration of 15 μM). The plate was preincubated for 10 minutes at 25° C. and the reaction initiated by addition of 5 μl of ATP. Initial reaction rates were determined with a Molecular Devices SpectraMax Plus plate reader over a 10 minute time course. IC50 and Ki data were calculated from non-linear regression analysis using the Prism software package (GraphPad Prism version 3.0cx for Macintosh, GraphPad Software, San Diego Calif., USA).

[3] = molecular target: ROCK (Homo sapiens, UniProt Q13464); assay: ROCK radioactive assay ("33P"); settings: radioactive assay; average Ki if more than one determined; read-out: ROCK 33P Ki
Sequence of ROCK (Q13464 whole entry): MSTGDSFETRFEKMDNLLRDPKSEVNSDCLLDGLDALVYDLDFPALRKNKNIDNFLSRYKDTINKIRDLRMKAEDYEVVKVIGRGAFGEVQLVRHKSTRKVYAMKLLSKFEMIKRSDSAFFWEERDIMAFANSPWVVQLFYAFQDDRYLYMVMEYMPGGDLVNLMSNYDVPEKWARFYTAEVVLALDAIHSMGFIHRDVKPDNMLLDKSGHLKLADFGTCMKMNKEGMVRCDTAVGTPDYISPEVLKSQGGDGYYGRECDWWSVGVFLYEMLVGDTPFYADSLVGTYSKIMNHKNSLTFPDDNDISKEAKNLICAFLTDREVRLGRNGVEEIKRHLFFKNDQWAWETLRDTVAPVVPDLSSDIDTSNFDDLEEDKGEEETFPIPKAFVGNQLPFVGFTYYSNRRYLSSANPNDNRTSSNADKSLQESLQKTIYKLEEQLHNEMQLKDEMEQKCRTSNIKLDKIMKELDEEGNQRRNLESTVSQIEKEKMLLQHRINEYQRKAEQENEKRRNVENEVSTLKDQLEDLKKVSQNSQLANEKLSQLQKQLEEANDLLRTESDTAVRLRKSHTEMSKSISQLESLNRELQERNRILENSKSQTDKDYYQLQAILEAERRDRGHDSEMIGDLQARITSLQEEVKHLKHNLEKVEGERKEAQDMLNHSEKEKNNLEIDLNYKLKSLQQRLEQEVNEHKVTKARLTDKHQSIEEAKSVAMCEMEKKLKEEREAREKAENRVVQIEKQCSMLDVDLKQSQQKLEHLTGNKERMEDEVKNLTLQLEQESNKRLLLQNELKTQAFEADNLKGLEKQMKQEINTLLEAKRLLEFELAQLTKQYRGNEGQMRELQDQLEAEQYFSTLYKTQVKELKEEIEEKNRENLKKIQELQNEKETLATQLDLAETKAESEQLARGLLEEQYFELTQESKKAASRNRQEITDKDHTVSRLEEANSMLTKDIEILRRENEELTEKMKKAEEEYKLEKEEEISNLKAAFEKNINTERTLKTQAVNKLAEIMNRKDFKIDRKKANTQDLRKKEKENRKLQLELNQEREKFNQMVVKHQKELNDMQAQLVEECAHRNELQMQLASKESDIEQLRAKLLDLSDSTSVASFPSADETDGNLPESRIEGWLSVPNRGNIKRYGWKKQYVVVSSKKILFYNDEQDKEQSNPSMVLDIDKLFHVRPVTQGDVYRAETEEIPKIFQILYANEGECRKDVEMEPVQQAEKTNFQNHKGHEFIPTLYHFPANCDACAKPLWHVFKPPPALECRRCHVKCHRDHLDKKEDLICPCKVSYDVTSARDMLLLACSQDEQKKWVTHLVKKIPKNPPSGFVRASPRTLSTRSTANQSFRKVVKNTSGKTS
Excerpt: (§1) If more than one value of Ki has been determined, the average Ki is indicated. If no value is indicated, then the Ki was not determined.

[4] = molecular target: ROCK I (AA 6-553) (Homo sapiens, UniProt Q13464); assay: ROCK inhibition assay, coupled enzyme system ("Enzyme"); settings: enzyme-linked assay; average Ki if more than one determined
Sequence of ROCK I (AA 6-553) (Q13464 6-553, species assumed): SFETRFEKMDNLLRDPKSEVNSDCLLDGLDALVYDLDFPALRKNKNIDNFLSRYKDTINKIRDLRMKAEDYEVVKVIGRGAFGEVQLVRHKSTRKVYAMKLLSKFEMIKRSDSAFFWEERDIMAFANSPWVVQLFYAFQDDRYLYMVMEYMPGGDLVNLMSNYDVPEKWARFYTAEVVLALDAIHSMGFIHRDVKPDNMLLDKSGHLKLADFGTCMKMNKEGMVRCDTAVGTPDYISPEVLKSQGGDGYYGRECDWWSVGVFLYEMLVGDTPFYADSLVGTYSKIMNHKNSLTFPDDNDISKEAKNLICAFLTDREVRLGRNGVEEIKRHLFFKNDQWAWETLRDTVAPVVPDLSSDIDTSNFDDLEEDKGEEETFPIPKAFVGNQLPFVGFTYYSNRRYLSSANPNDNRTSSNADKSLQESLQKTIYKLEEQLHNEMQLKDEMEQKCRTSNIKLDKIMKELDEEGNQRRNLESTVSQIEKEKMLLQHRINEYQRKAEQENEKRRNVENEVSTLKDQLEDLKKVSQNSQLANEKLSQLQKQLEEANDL
Procedure: Reactions were carried out in a solution containing 100 mM HEPES (pH 7.5), 10 mM MgCl2, 25 mM NaCl, 2 mM DTT and 1.5% DMSO.
as §1

## O=C(Cc1ccccc1)Nc1nc(-c2c[nH]c3ncccc23)cs1 [I-1]
[1]
  Ki: < 500 nM
[2]
  Ki: 500 to 5000 nM

## CC(C)C(=O)Nc1nc(-c2c[nH]c3ncccc23)cs1 [II-162]
[1]
  Ki: 500 to 5000 nM
[2]
  Ki: 500 to 5000 nM
[3]
  Ki: < 500 nM

## COc1cccc(CNC(=O)c2csc(-c3c[nH]c4ncccc34)c2)c1 [II-114]
[4]
  Ki: < 500 nM
[1]
  Ki: < 500 nM
[3]
  Ki: < 500 nM

## O=C(Cc1cccc(S(=O)(=O)N2CCOCC2)c1)Nc1ccc(-c2c[nH]c3ncccc23)s1 [II-129]
[4]
  Ki: < 500 nM
[1]
  Ki: 500 to 5000 nM
[3]
  Ki: < 500 nM

## O=C(Cc1cccc(S(=O)(=O)N2CCOCC2)c1)Nc1nc(-c2c[nH]c3ncc(F)cc23)cs1 [II-121]
[4]
  Ki: < 500 nM
[1]
  Ki: 500 to 5000 nM
[3]
  Ki: < 500 nM

## N#CCC(=O)Nc1nc(-c2c[nH]c3ncccc23)cs1 [II-116]
[4]
  Ki: < 500 nM
[1]
  Ki: < 500 nM
[3]
  Ki: < 500 nM

## O=C(Nc1nc(-c2c[nH]c3ncc(Br)cc23)cs1)C1Cc2ccccc2C1 [II-246]
[1]
  Ki: 500 to 5000 nM
[2]
  Ki: 500 to 5000 nM
[3]
  Ki: < 500 nM

## O=C(CCc1ccccc1)Nc1nc(-c2c[nH]c3ncc(Br)cc23)cs1 [II-249]
[1]
  Ki: 500 to 5000 nM
[2]
  Ki: 500 to 5000 nM
[3]
  Ki: < 500 nM

## O=C(Cc1cccc(S(=O)(=O)N2CCC(O)C2)c1)Nc1nc(-c2c[nH]c3ncccc23)cs1 (stereo not drawn) [II-124]
[4]
  Ki: < 500 nM
[1]
  Ki: < 500 nM
[3]
  Ki: < 500 nM

## O=C(CC1CCCC1)Nc1nc(-c2c[nH]c3ncc(Br)cc23)cs1 [II-248]
[1]
  Ki: < 500 nM
[2]
  Ki: 500 to 5000 nM
[3]
  Ki: 500 to 5000 nM

## O=C(Cc1cccc(S(=O)(=O)NCCCN2CCOCC2)c1)Nc1nc(-c2c[nH]c3ncccc23)cs1 [II-126]
[4]
  Ki: < 500 nM
[1]
  Ki: < 500 nM
[3]
  Ki: < 500 nM

## CS(=O)(=O)Nc1cccc(CNC(=O)c2csc(-c3c[nH]c4ncccc34)c2)c1 [II-117]
[4]
  Ki: < 500 nM
[1]
  Ki: < 500 nM
[3]
  Ki: < 500 nM

## CN1CCN(S(=O)(=O)c2cccc(CC(=O)Nc3nc(-c4c[nH]c5ncccc45)cs3)c2)CC1 [II-51]
[4]
  Ki: < 500 nM
[1]
  Ki: < 500 nM
[3]
  Ki: < 500 nM

## CN1CCN(CCCOc2ccc(CC(=O)Nc3nc(-c4c[nH]c5ncccc45)cs3)c(Cl)c2)CC1 [II-111]
[4]
  Ki: < 500 nM
[1]
  Ki: 500 to 5000 nM
[3]
  Ki: < 500 nM

## O=C(CCS(=O)(=O)c1ccccc1)Nc1nc(-c2c[nH]c3ncc(Br)cc23)cs1 [II-253]
[1]
  Ki: < 500 nM
[2]
  Ki: 500 to 5000 nM
[3]
  Ki: 500 to 5000 nM

## O=C(Cc1ccccc1)N(c1nc(-c2c[nH]c3ncccc23)cs1)C1CC1 [I-20]
[4]
  Ki: < 500 nM
[1]
  Ki: < 500 nM
[2]
  Ki: 500 to 5000 nM

## CS(=O)(=O)Nc1cccc(CNC(=O)c2ccc(-c3c[nH]c4ncccc34)s2)c1 [II-115]
[4]
  Ki: < 500 nM
[1]
  Ki: < 500 nM
[3]
  Ki: < 500 nM

## O=C(Cc1ccccc1)Nc1nc(-c2c[nH]c3ncc(Br)cc23)cs1 [II-79]
[4]
  Ki: < 500 nM
[1]
  Ki: < 500 nM
[2]
  Ki: 500 to 5000 nM
[3]
  Ki: < 500 nM
